Measurements published in US11173124B2, “Oral delivery of GLP-1 peptide analogs” (MEDIMMUNE LIMITED, priority 2017, dated 2021).
Where two headings read alike, the source gives them in different places.

Assays:
[1] = Caco-2 permeability assay, permeability coefficient Papp (Examples 1 and 2); type: in vitro ADME, human
Source text: The Caco-2 cell line is a continuous cell line of heterogeneous human epithelial colorectal adenocarcinoma cells, which when cultured under specific conditions, become differentiated and polarized such that their phenotype, morphologically and functionally, resembles the enterocytes lining the small intestine. Caco-2 cells express tight junctions, microvilli, and a number of enzymes and transporters that are characteristic of such enterocytes. Caco-2 cells are most commonly used as a tight junction monolayer that provides a physical and biochemical barrier to the passage of drugs and thus serves as an in vitro model of the human small intestinal mucosa to predict the absorption of orally administered drugs. Caco-2 permeability assays were performed by Cyprotex US, LLC (MA, USA) to assess the efficacy of different permeation enhancers. Caco-2 cells were grown on Transwell filters until a transepithelial electric resistance of ˜1000 ohms/cm^2 was achieved. The cells were incubated for three hours with media containing test samples on the apical (top) side of the cell layer, and with blank media on the basolateral (lower) side of the cell layer. Media from the apical and basolateral sides was collected separately after three hours and evaluated for the amount of peptide present on each side. Table 2 gives the permeability coefficient (Papp) of the various test samples, which include the SEQ ID NO:3 GLP-1 peptide in the presence of different excipients.
The apparent permeability coefficients (Papp) of all polypeptides were calculated using the following equation: Papp=dQ/dt×1/A C0
Where dQ/dt is the amount of solutes transported across the Caco-2 barrier in time dt, C0 is the solute concentration in the apical compartment at time zero, and A is the cross-sectional area of the epithelium in contact with apical solution.
The next Caco-2 study was performed to evaluate the ability of additional excipients to enhance the permeability of the SEQ ID NO:3 peptide across tight junction cell layers.

[2] = Second rat intraduodenal study, permeation enhancers from Caco-2 (Example 5); type: in vivo; details: for AUC / Cmax / Tmax / half-life: in vivo, pH 8, rat
Protocol: Solution formulations comprising GLP-1 peptide analogs were injected into rats in the duodenum segment of the small intestine. The first ID study involved the use of sodium caprate as the permeation enhancer and the SEQ ID NO:3 GLP-1 peptide analog. Absolute bioavailability (% F) is a percentage-expressed measure of systemic drug exposure after oral, or in the current example intraduodenal, administration to the systemic exposure generated with intravenous (IV) administration of drug solution. Absolute bioavailability, (% F), is calculated as a percentage of systemic, or blood, drug concentration area under curve (AUC) of the AUC of IV administration adjusted to the amounts of drug given via these routes of administration.
Following the initial rat ID study, a second rat ID administration study was performed to evaluate the influence of permeation enhancers identified from the Caco-2 model study. That is, tetradecyl maltoside, sodium chenodeoxycholate, and combination of sodium chenodeoxycholate and propyl gallate were tested for their effect on oral bioavailability of the SEQ ID NO:3 peptide (Table 6).

[3] = ID, 1 mg/kg peptide + 25 mg/kg Na CDC + 12.5 mg/kg PG, PBS pH 8.0
[4] = ID, 1 mg/kg peptide + 25 mg/kg Na CDC, PBS pH 8.0
[5] = ID, 1 mg/kg peptide + 25 mg/kg Tetradecylmaltoside, PBS pH 8.0
[6] = ID, 1 mg/kg peptide + 50 mg/kg Na CDC, PBS pH 8.0
[7] = ID, 1 mg/kg peptide + 50 mg/kg Tetradecylmaltoside, PBS pH 8.0
[8] = ID, 10 mg/kg peptide + 50 mg/kg Na CDC + 25 mg/kg PG, PBS pH 8.0
[9] = ID, 10 mg/kg peptide + 50 mg/kg Na CDC, PBS pH 8.0
[10] = ID, 10 mg/kg peptide + 50 mg/kg Tetradecylmaltoside, PBS pH 8.0
[11] = 1 mg/kg, ID, 1 mg/kg peptide, no permeation enhancer, PBS pH 8.0
[12] = iv, 0.01 mg/kg, 0.01 mg/kg peptide in PBS pH 8.0
[13] = ID, 1 mg/kg peptide + 50 mg/kg Na CDC + 25 mg/kg PG, PBS pH 8.0

CC[C@H](C)[C@H](NC(=O)C(C)(Cc1ccccc1)NC(=O)[C@H](CCC(=O)O)NC(=O)[C@H](CCCCNC(=O)COCCOCCNC(=O)COCCOCCNC(=O)CC[C@H](NC(=O)CCCCCCCCCCCCCCCCC(=O)O)C(=O)O)NC(=O)[C@H](C)NC(=O)[C@H](C)NC(=O)[C@H](CCC(=O)O)NC(=O)CNC(=O)[C@H](CCC(=O)O)NC(=O)[C@H](CC(C)C)NC(=O)C(C)(Cc1ccccc1)NC(=O)[C@H](CO)NC(=O)C(C)(CO)NC(=O)[C@@H](NC(=O)[C@H](CC(=O)O)NC(=O)[C@H](CO)NC(=O)[C@@H](NC(=O)C(C)(Cc1ccccc1)NC(=O)[C@H](CO)NC(=O)CNC(=O)[C@H](CCC(=O)O)NC(=O)C(C)(C)NC(=O)[C@@H](N)Cc1c[nH]cn1)[C@@H](C)O)C(C)C)C(=O)N[C@@H](C)C(=O)NC(C)(Cc1ccccc1)C(=O)N[C@H](C(=O)N[C@H](C(=O)NC(C)(CCCCN)C(=O)NCC(=O)NCC(N)=O)C(C)C)C(C)C (stereo partly drawn) [SEQ ID NO: 3, Free-H-[AIB]-EGS-[αMePhe]-TSDV-[αMeSer]-S-[αMePhe]-LEGEAAK[(PEG2)2-γE-Stearate]-E-[αMePhe]-IA-[αMePhe]-VV-[αMeLys]-GG-amide] showed a Papp A→B ([1]; Caco-2, Example 1, 0.05 mg/mL peptide, ⅛ Lauroglycol FCC:Kolliphor EL:Transcutol HP 5:4:3 (w/w)) of 0.09 ×10⁻⁶ cm/s, a Papp A→B ([1]; Caco-2, Example 1, 0.1 mg/mL peptide, 0.5 mg/mL Tetradecylmaltoside) of 0.05 ×10⁻⁶ cm/s and a Papp A→B ([1]; Caco-2, Example 1, 0.1 mg/mL peptide, 2.5 mg/mL Tetradecylmaltoside) of 0.88 ×10⁻⁶ cm/s. The Papp A→B ([1]; Caco-2, Example 1, 0.1 mg/mL peptide, 5.0 mg/mL Sodium Chenodeoxycholate) was 6.2 ×10⁻⁶ cm/s, the Papp A→B ([1]; Caco-2, Example 1, 0.1 mg/mL peptide, 10.0 mg/mL Sodium Decanoate) was 0.4 ×10⁻⁶ cm/s and the Papp A→B ([1]; Caco-2, Example 1, 0.1 mg/mL peptide, 12.5 mg/mL Tetradecylmaltoside) was 7.8 ×10⁻⁶ cm/s. For the same compound, the Papp A→B ([1]; Caco-2, Example 1, 0.1 mg/mL peptide, 25.0 mg/mL Sodium Chenodeoxycholate) was 10.3 ×10⁻⁶ cm/s, the Papp A→B ([1]; Caco-2, Example 1, 0.1 mg/mL peptide, ¼ Lauroglycol FCC:Kolliphor EL:Transcutol HP 5:4:3 (w/w)) was 0.05 ×10⁻⁶ cm/s and the Papp A→B ([1]; Caco-2, Example 2, 0.1 mg/mL peptide, 12.5 mg/mL Dodecylmaltoside) was 6.4 ×10⁻⁶ cm/s. For the same compound, the Papp A→B ([1]; Caco-2, Example 2, 0.1 mg/mL peptide, 12.5 mg/mL Tetradecylmaltoside) was 1.4 ×10⁻⁶ cm/s, the Papp A→B ([1]; Caco-2, Example 2, 0.1 mg/mL peptide, 25.0 mg/mL Sodium Chenodeoxycholate, 12.5 mg/mL Propyl gallate) was 43.1 ×10⁻⁶ cm/s and the F [2, 3] was 0.28%. The F [2, 4] was 0.12%, the F [2, 5] was 0.08% and the F [2, 6] was 0.21%. The F [2, 7] was 0.06%, the “increase of oral bioavailability” value ([2]; ID, 1 mg/kg peptide, 50 mg/kg sodium chenodeoxycholate and 25 mg/kg propyl gallate (to 0.39%)) was ~20 fold and the F [2, 8] was 0.42%. For the same compound, the F [2, 9] was 0.28%, the F [2, 10] was 0.07% and the F ([2]; Intravenous, 0.01 mg/kg peptide in PBS pH 8.0) was 100%. For the same compound, the AUC [2, 11] was 19.4 ng·h/mL, the Cmax [2, 11] was 3.16 ng/mL and the Tmax [2, 11] was 8 h. The AUC [2, 12] was 1030 ng·h/mL, the Cmax [2, 12] was 96.2 ng/mL and the half-life ([2]; iv, 0.01 mg/kg, Intravenous, 0.01 mg/kg peptide in PBS pH 8.0, read-out: T ½ (converted)) was 2.9 h. It also gave an AUC [2, 3] of 293 ng·h/mL, a Cmax [2, 3] of 39 ng/mL and a Tmax [2, 3] of 0.3 h. It also gave a half-life ([2]; ID, 1 mg/kg peptide + 25 mg/kg Na CDC + 12.5 mg/kg PG, PBS pH 8.0, read-out: T ½ (converted)) of 9.1 h, an AUC [2, 4] of 121 ng·h/mL and a Cmax [2, 4] of 21.3 ng/mL. For the same compound, the Tmax [2, 4] was 0.3 h, the half-life ([2]; ID, 1 mg/kg peptide + 25 mg/kg Na CDC, PBS pH 8.0, read-out: T ½ (converted)) was 7.16 h and the AUC [2, 5] was 87.3 ng·h/mL. For the same compound, the Cmax [2, 5] was 5.4 ng/mL, the Tmax [2, 5] was 1 h and the half-life ([2]; ID, 1 mg/kg peptide + 25 mg/kg Tetradecylmaltoside, PBS pH 8.0, read-out: T ½ (converted)) was 17.4 h. For the same compound, the AUC [2, 13] was 402 ng·h/mL, the Cmax [2, 13] was 58.1 ng/mL and the Tmax [2, 13] was 0.5 h. The half-life ([2]; ID, 1 mg/kg peptide + 50 mg/kg Na CDC + 25 mg/kg PG, PBS pH 8.0, read-out: T ½ (converted)) was 9.9 h, the AUC [2, 6] was 212 ng·h/mL and the Cmax [2, 6] was 30.9 ng/mL. The Tmax [2, 6] was 0.5 h, the half-life ([2]; ID, 1 mg/kg peptide + 50 mg/kg Na CDC, PBS pH 8.0, read-out: T ½ (converted)) was 9.3 h and the AUC [2, 7] was 63.2 ng·h/mL. The Cmax [2, 7] was 5.8 ng/mL, the Tmax [2, 7] was 1 h and the half-life ([2]; ID, 1 mg/kg peptide + 50 mg/kg Tetradecylmaltoside, PBS pH 8.0, read-out: T ½ (converted)) was 10.3 h. It also gave an AUC [2, 8] of 4330 ng·h/mL, a Cmax [2, 8] of 670 ng/mL and a Tmax [2, 8] of 0.5 h. For the same compound, the half-life ([2]; ID, 10 mg/kg peptide + 50 mg/kg Na CDC + 25 mg/kg PG, PBS pH 8.0, read-out: T ½ (converted)) was 11 h, the AUC [2, 9] was 2920 ng·h/mL and the Cmax [2, 9] was 380 ng/mL. The Tmax [2, 9] was 0.5 h, the half-life ([2]; ID, 10 mg/kg peptide + 50 mg/kg Na CDC, PBS pH 8.0, read-out: T ½ (converted)) was 9.4 h and the AUC [2, 10] was 705 ng·h/mL. It also gave a Cmax [2, 10] of 51.5 ng/mL, a Tmax [2, 10] of 0.5 h and a half-life ([2]; ID, 10 mg/kg peptide + 50 mg/kg Tetradecylmaltoside, PBS pH 8.0, read-out: T ½ (converted)) of 8.19 h.
